From ChEMBL document CHEMBL3046559, “Sterile oat (Avena sterilis L.) cross-resistance profile to ACCase-inhibiting herbicides in Greece” (2012)

Columns and labels:
Format in all cases: functional
[1] = system: Avena sterilis; assay: Herbicidal activity against Avena sterilis accession P22 assessed as weed survival at 32 times field recommended herbicide dose
[2] = system: Avena sterilis; assay: Herbicidal activity against Avena sterilis accession P22 assessed as induction of weed mortality
[3] = system: Avena sterilis; assay: Herbicidal activity against Avena sterilis accession P19S assessed as induction of weed mortality
[4] = system: Avena sterilis; assay: Herbicidal activity against Avena sterilis accession P01 assessed as weed survival at 1 times field recommended herbicide dose
[5] = system: Avena sterilis; assay: Herbicidal activity against Avena sterilis accession P05 assessed as weed survival at 1 times field recommended herbicide dose
[6] = system: Avena sterilis; assay: Herbicidal activity against Avena sterilis accession P16 assessed as weed survival at 4 times field recommended herbicide dose
[7] = system: Avena sterilis; assay: Herbicidal activity against Avena sterilis accession P17 assessed as weed survival at 4 times field recommended herbicide dose
[8] = system: Avena sterilis; assay: Herbicidal activity against Avena sterilis accession P21S assessed as weed survival at 1/4 times field recommended herbicide dose
[9] = system: Avena sterilis; assay: Herbicidal activity against Avena sterilis accession P06S assessed as weed survival at 1/8 times field recommended herbicide dose
[10] = system: Avena sterilis; assay: Herbicidal activity against Avena sterilis accession P14 assessed as induction of weed mortality
[11] = system: Avena sterilis; assay: Herbicidal activity against Avena sterilis accession P01 assessed as weed survival at 16 times field recommended herbicide dose
[12] = system: Avena sterilis; assay: Herbicidal activity against Avena sterilis accession P07 assessed as weed survival at 16 times field recommended herbicide dose
[13] = system: Avena sterilis; assay: Herbicidal activity against Avena sterilis accession P21S assessed as weed survival at 1/16 times field recommended herbicide dose
[14] = system: Avena sterilis; assay: Herbicidal activity against Avena sterilis accession P17 assessed as weed survival at 8 times field recommended herbicide dose
[15] = system: Avena sterilis; assay: Herbicidal activity against Avena sterilis accession P04 assessed as induction of weed mortality
[16] = system: Avena sterilis; assay: Herbicidal activity against Avena sterilis accession P12 assessed as weed survival at 32 times field recommended herbicide dose
[17] = system: Avena sterilis; assay: Herbicidal activity against Avena sterilis accession P07 assessed as weed survival at 32 times field recommended herbicide dose
[18] = system: Avena sterilis; assay: Herbicidal activity against Avena sterilis accession P18 assessed as weed survival at 1 times field recommended herbicide dose
[19] = system: Avena sterilis; assay: Herbicidal activity against Avena sterilis accession P10S assessed as induction of weed mortality
[20] = system: Avena sterilis; assay: Herbicidal activity against Avena sterilis accession P18 assessed as weed survival at 16 times field recommended herbicide dose
[21] = system: Avena sterilis; assay: Herbicidal activity against Avena sterilis accession P06S assessed as induction of weed mortality
[22] = system: Avena sterilis; assay: Herbicidal activity against Avena sterilis accession P21S assessed as weed survival at 1/8 times field recommended herbicide dose
[23] = system: Avena sterilis; assay: Herbicidal activity against Avena sterilis accession P18 assessed as weed survival at 32 times field recommended herbicide dose
[24] = system: Avena sterilis; assay: Herbicidal activity against Avena sterilis accession P05 assessed as induction of weed mortality
[25] = system: Avena sterilis; assay: Herbicidal activity against Avena sterilis accession P17 assessed as weed survival at 16 times field recommended herbicide dose
[26] = system: Avena sterilis; assay: Herbicidal activity against Avena sterilis accession P15 assessed as induction of weed mortality
[27] = system: Avena sterilis; assay: Herbicidal activity against Avena sterilis accession P15 assessed as weed survival at 32 times field recommended herbicide dose
[28] = system: Avena sterilis; assay: Herbicidal activity against Avena sterilis accession P18 assessed as induction of weed mortality
[29] = system: Avena sterilis; assay: Herbicidal activity against Avena sterilis accession P06S assessed as weed survival at 1/32 times field recommended herbicide dose
[30] = system: Avena sterilis; assay: Herbicidal activity against Avena sterilis accession P18 assessed as weed survival at 4 times field recommended herbicide dose
[31] = system: Avena sterilis; assay: Herbicidal activity against Avena sterilis accession P03 assessed as induction of weed mortality
[32] = system: Avena sterilis; assay: Herbicidal activity against Avena sterilis accession P05 assessed as weed survival at 8 times field recommended herbicide dose
[33] = system: Avena sterilis; assay: Herbicidal activity against Avena sterilis accession P17 assessed as induction of weed mortality
[34] = system: Avena sterilis; assay: Herbicidal activity against Avena sterilis accession P12 assessed as weed survival at 1 times field recommended herbicide dose
[35] = system: Avena sterilis; assay: Herbicidal activity against Avena sterilis accession P21S assessed as induction of weed mortality
[36] = system: Avena sterilis; assay: Herbicidal activity against Avena sterilis accession P15 assessed as weed survival at 1 times field recommended herbicide dose
[37] = system: Avena sterilis; assay: Herbicidal activity against Avena sterilis accession P17 assessed as weed survival at 1 times field recommended herbicide dose
[38] = system: Avena sterilis; assay: Herbicidal activity against Avena sterilis accession P09 assessed as weed survival at 1 times field recommended herbicide dose
[39] = system: Avena sterilis; assay: Herbicidal activity against Avena sterilis accession P09 assessed as weed survival at 16 times field recommended herbicide dose
[40] = system: Avena sterilis; assay: Herbicidal activity against Avena sterilis accession P12 assessed as weed survival at 8 times field recommended herbicide dose
[41] = system: Avena sterilis; assay: Herbicidal activity against Avena sterilis accession P04 assessed as weed survival at 4 times field recommended herbicide dose
[42] = system: Avena sterilis; assay: Herbicidal activity against Avena sterilis accession P21S assessed as weed survival at 1 times field recommended herbicide dose
[43] = system: Avena sterilis; assay: Herbicidal activity against Avena sterilis accession P05 assessed as weed survival at 32 times field recommended herbicide dose
[44] = system: Avena sterilis; assay: Herbicidal activity against Avena sterilis accession P03 assessed as weed survival at 8 times field recommended herbicide dose
[45] = system: Avena sterilis; assay: Herbicidal activity against Avena sterilis accession P22 assessed as weed survival at 16 times field recommended herbicide dose
[46] = system: Avena sterilis; assay: Herbicidal activity against Avena sterilis accession P10S assessed as weed survival at 1/32 times field recommended herbicide dose
[47] = system: Avena sterilis; assay: Herbicidal activity against Avena sterilis accession P02 assessed as weed survival at 32 times field recommended herbicide dose
[48] = system: Avena sterilis; assay: Herbicidal activity against Avena sterilis accession P20 assessed as weed survival at 16 times field recommended herbicide dose
[49] = system: Avena sterilis; assay: Herbicidal activity against Avena sterilis accession P08 assessed as weed survival at 32 times field recommended herbicide dose
[50] = system: Avena sterilis; assay: Herbicidal activity against Avena sterilis accession P07 assessed as weed survival at 1 times field recommended herbicide dose
[51] = system: Avena sterilis; assay: Herbicidal activity against Avena sterilis accession P10S assessed as weed survival at 1 times field recommended herbicide dose
[52] = system: Avena sterilis; assay: Herbicidal activity against Avena sterilis accession P15 assessed as weed survival at 16 times field recommended herbicide dose
[53] = system: Avena sterilis; assay: Herbicidal activity against Avena sterilis accession P19S assessed as weed survival at 1/8 times field recommended herbicide dose
[54] = system: Avena sterilis; assay: Herbicidal activity against Avena sterilis accession P13S assessed as weed survival at 1/16 times field recommended herbicide dose
[55] = system: Avena sterilis; assay: Herbicidal activity against Avena sterilis accession P14 assessed as weed survival at 16 times field recommended herbicide dose
[56] = system: Avena sterilis; assay: Herbicidal activity against Avena sterilis accession P11 assessed as weed survival at 16 times field recommended herbicide dose
[57] = system: Avena sterilis; assay: Herbicidal activity against Avena sterilis accession P12 assessed as induction of weed mortality
[58] = system: Avena sterilis; assay: Herbicidal activity against Avena sterilis accession P03 assessed as weed survival at 16 times field recommended herbicide dose

With `CCc1cc(C)cc(CC)c1-c1c(OC(=O)C(C)(C)C)n2n(c1=O)CCOCC2` [PINOXADEN] the Survival [1] was 0%, the GR50 [2] was <40 gAi/ha and the GR50 [3] was 6.6 gAi/ha. For the same compound, the Survival [4] was 20%, the Survival [5] was 20% and the Survival [6] was 0%. The Survival [7] was 0%, the Survival [8] was 20% and the Survival [9] was 20%. For the same compound, the GR50 [10] was <40 gAi/ha, the Survival [11] was 0% and the Survival [12] was 0%. It also gave a Survival [13] of 97%, a Survival [14] of 0% and a GR50 [15] of 74 gAi/ha. It also gave a Survival [16] of 0%, a Survival [17] of 0% and a Survival [18] of 0%. It also gave a GR50 [19] of 4.1 gAi/ha, a Survival [20] of 0% and a GR50 [21] of 3.5 gAi/ha. For the same compound, the Survival [22] was 57%, the Survival [23] was 0% and the GR50 [24] was <40 gAi/ha. The Survival [25] was 0%, the GR50 [26] was <40 gAi/ha and the Survival [27] was 0%. The GR50 [28] was <40 gAi/ha, the Survival [29] was 97% and the Survival [30] was 0%. The GR50 [31] was <40 gAi/ha, the Survival [32] was 0% and the GR50 [33] was <40 gAi/ha. For the same compound, the Survival [34] was 0%, the GR50 [35] was 5.8 gAi/ha and the Survival [36] was 20%. The Survival [37] was 0%, the Survival [38] was 0% and the Survival [39] was 0%. The Survival [40] was 0%, the Survival [41] was 20% and the Survival [42] was 0%. The Survival [43] was 0%, the Survival [44] was 0% and the Survival [45] was 0%. The Survival [46] was 100%, the Survival [47] was 0% and the Survival [48] was 0%. For the same compound, the Survival [49] was 0%, the Survival [50] was 0% and the Survival [51] was 0%. The Survival [52] was 0%, the Survival [53] was 50% and the Survival [54] was 97%. For the same compound, the Survival [55] was 0%, the Survival [56] was 0% and the GR50 [57] was <40 gAi/ha. It also gave a Survival [58] of 0%.
`CCO/N=C(\CC)C1=C(O)CC(c2c(C)cc(C)cc2C)CC1=O` (stereo unspecified) [TRALKOXYDIM] was tested, and the Survival [1] was 0%, the GR50 [2] was 434 gAi/ha and the GR50 [3] was 11 gAi/ha. The Survival [4] was 60%, the Survival [5] was 40% and the Survival [6] was 30%. It also gave a Survival [7] of 20%, a Survival [8] of 33% and a Survival [9] of 30%. For the same compound, the GR50 [10] was <400 gAi/ha, the Survival [11] was 0% and the Survival [12] was 0%. For the same compound, the Survival [13] was 80%, the Survival [14] was 7% and the GR50 [15] was 7591 gAi/ha. For the same compound, the Survival [16] was 0%, the Survival [17] was 0% and the Survival [18] was 20%. It also gave a GR50 [19] of 29 gAi/ha, a Survival [20] of 0% and a GR50 [21] of 32 gAi/ha. For the same compound, the Survival [22] was 77%, the Survival [23] was 0% and the GR50 [24] was <400 gAi/ha. The Survival [25] was 0%, the GR50 [26] was 735 gAi/ha and the Survival [27] was 0%. The GR50 [28] was <400 gAi/ha, the Survival [29] was 80% and the Survival [30] was 20%. For the same compound, the GR50 [31] was 1561 gAi/ha, the Survival [32] was 10% and the GR50 [33] was 412 gAi/ha. It also gave a Survival [34] of 13%, a GR50 [35] of 84 gAi/ha and a Survival [36] of 70%. It also gave a Survival [37] of 50%, a Survival [38] of 60% and a Survival [39] of 0%. For the same compound, the Survival [40] was 0%, the Survival [41] was 77% and the Survival [42] was 20%. It also gave a Survival [43] of 0%, a Survival [44] of 20% and a Survival [45] of 20%. The Survival [46] was 97%, the Survival [47] was 0% and the Survival [48] was 17%. It also gave a Survival [49] of 0%, a Survival [50] of 23% and a Survival [51] of 0%. The Survival [52] was 20%, the Survival [53] was 93% and the Survival [54] was 67%. The Survival [55] was 0%, the Survival [56] was 0% and the GR50 [57] was <400 gAi/ha. The Survival [58] was 20%.
